The record followed here is patent publication US11844823B2, “Beta-hairpin peptidomimetic with elastase inhibitory activity and aerosol dosage forms thereof” (POLYPHOR AG, priority 2016, dated 2023).

In one data set the test system is neutrophil elastase. Nature of the data set: LPS/fMLP model of neutrophil activation in the rat, inhalation; neutrophil elastase activity in BAL supernatant. Format: in vivo. The note with it: for NE activity in BAL fluid: mean ± s.e.m., vehicle 0.25 ± 0.02, p < 0.0001. The protocol:
The purpose of this study (conducted by Envigo CRS Limited, Alconbury, Huntingdon, United Kingdom) was to evaluate the effects of acetate salt of cyclo(-OctG-Glu-Thr-Ala-Ser-Ile-Pro-Pro-Gln-Lys-Tyr-^DPro-Pro-) administered by inhalation in a LPS/fMLP model of neutrophil activation in the rat.
Animals were challenged with aerosolized LPS (lipopolysaccharide, 1 mg/mL) for 30 min. Approximately 3 h following end of LPS challenge, animals were administered either vehicle or formulations as described above of acetate salt of cyclo(-OctG-Glu-Thr-Ala-Ser-Ile-Pro-Pro-Gln-Lys-Tyr-^DPro-Pro-) by inhalation (Groups 1-4) over a 30 min period using an eFlow® 30 XL electronic nebulizer (Pari Pharma GmbH, Starnberg, Germany; snout only exposure). All animals were dosed with fMLP (N-formyl-Met-Leu-Phe, 5 mg/kg) approximately 4 h post completion of the LPS challenge via the intratracheal route under transient gaseous anaesthesia at a dose volume of 1 mL/kg. Approximately 2 h after fMLP administration, animals were terminated and a bronchoalveolar lavage (BAL) was performed to evaluate inflammatory cell infiltrate and neutrophil elastase activity.
Following confirmation of death, the trachea of an animal was isolated, the tracheal cannula inserted and secured in place, and the airway was lavaged with 3 mL of phosphate buffered saline (PBS). The lavage was repeated twice and in total, three lots of 3 mL of PBS were used. The first lavage aliquot containing cells was placed into a 15 mL centrifuge tube on wet ice (Tube A). The BAL fluid pooled from the second two lavages was placed into a second tube (Tube B). Tube A and B were placed on wet ice until centrifuged. Centrifugation was performed at 800×g for 10 min at ca. 4° C. and the supernantant was harvested. Until neutrophil elastase analysis supernantant was stored at ca. […].
The two aliquots of BAL supernatant were analyzed for neutrophil elastase activity as follows: 120 μl of BAL supernatant from aliquot 1 was transferred to a 96 well plate (Corning #3650). In parallel, a dilution range from 1.6 to 0.025 mU/well of a commercial human neutrophil elastase (hNE, Serva #20927.01) was prepared. 120 μl of each hNE dilution were transferred in duplicate to the 96-well plate. To start the enzymatic reaction, 80 μl of a fluorescent peptide substrate (MeOSuc-Ala-Ala-Pro-Val-AMC) at a final concentration of 500 μM was added to each well and the plate was immediately placed in the victor2v fluorescent reader pre-warmed at 37° C. Fluorescence (λexc. 485 nm, λem. 535 nm) was recorded for 2 h at 37° C. Enzyme initial velocity (RFU/min) of all samples was calculated and converted in mU/mL hNE equivalent, using the linear regression equation obtained from the plot (RFU/min vs mU/mL of hNE dilution) of the human neutrophil elastase standard range. The assay was repeated using BAL supernatant from aliquot 2. The neutrophil elastase data reported is a mean of the neutrophil elastase activity from both aliquots.

For another data set, the system named is healthy subjects. The data set is described as follows: First-in-man study in healthy subjects, safety and tolerability of orally inhaled single doses. Type of data set: in vivo, human. An excerpt: In this randomised, double-blind, placebo-controlled, parallel-group (per dose level) dose-escalation study of inhaled single doses in 48 healthy subjects in six dose groups of eight subjects each, conducted by Inamed GmbH, Gauting, Germany, the controlled oral inhalation of the formulation described in Example 1 and dilutions thereof as well as the placebo (0.5% [w/w] aqueous sodium chloride solution adjusted to pH 5.5 with 1 M HCl pharmaceutical grade) occurred via the Pari eFlow® XL 30 nebulizer device (Pari Pharma GmbH, Starnberg, Germany). The dose levels and corresponding concentrations of cyclo(-OctG-Glu-Thr-Ala-Ser-Ile-Pro-Pro-Gln-Lys-Tyr-^DPro-Pro-) (active compound) are summarized in Table 10.
The volume of placebo nebulizer solution corresponded to that of the active compound at a particular dose level. The duration of inhalation depended on the total volume of nebulizer solution and ranged between several minutes and roughly one hour. Adverse events were tabulated and summarized according to the current version of Medical Dictionary for Regulatory Activities.

Data set [1] concerns patients with cystic fibrosis. The data set is described as follows: Phase-1b single ascending dose study in patients with cystic fibrosis, safety and tolerability. Format: in vivo, human. From the text: In this randomised, double-blind, placebo-controlled, parallel-group (per dose level) dose-escalation study, the safety and tolerability of single ascending doses (SAD) of acetate salt of cyclo(-OctG-Glu-Thr-Ala-Ser-Ile-Pro-Pro-Gln-Lys-Tyr-^DPro-Pro-) administered by inhalation in patients with cystic fibrosis (CF) was investigated. Additionally, the pharmacokinetics of the drug following a single ascending dose in plasma and sputum as well as its pharmacodynamic effect on neutrophil elastase activity in sputum were evaluated.
In this study, conducted by Inamed GmbH, Gauting, Germany, 24 subjects with cystic fibrosis, who fulfilled all the inclusion criteria and in whom no exclusion criterion was present, were included and received randomised treatment. They were grouped into 3 dose groups of 8 subjects each. 6 subjects received the formulation described in Example 1 and dilutions thereof and 2 subjects received placebo (0.5% [w/w] aqueous sodium chloride solution adjusted to pH 5.5 with 1 M HCl pharmaceutical grade). The oral inhalation of the above formulation as well as the placebo occurred via the Pari eFlow® XL 30 nebulizer device (Pari Pharma GmbH, Starnberg, Germany). The dose levels and corresponding concentrations of cyclo(-OctG-Glu-Thr-Ala-Ser-Ile-Pro-Pro-Gln-Lys-Tyr-^DPro-Pro-) (active compound) are summarized in Table 14.
The volume of placebo nebulizer solution corresponded to that of the active compound at a particular dose level. The duration of inhalation was estimated to be between 7 and 20 min. Adverse events were tabulated and summarized according to the current version of Medical Dictionary for Regulatory Activities.

Structures are written as SMILES. Non-standard residues stand in square brackets, D forms with d. Residues, ends and D or L forms follow the SMILES beside them. Gly(octyl) = CCCCCCCC[C@H](N)C(=O)O

For `CCCCCCCC[C@@H]1NC(=O)[C@@H]2CCCN2C(=O)[C@H]2CCCN2C(=O)[C@H](Cc2ccc(O)cc2)NC(=O)[C@H](CCCCN)NC(=O)[C@H](CCC(N)=O)NC(=O)[C@@H]2CCCN2C(=O)[C@@H]2CCCN2C(=O)[C@H]([C@@H](C)CC)NC(=O)[C@H](CO)NC(=O)[C@H](C)NC(=O)[C@H]([C@@H](C)O)NC(=O)[C@H](CCC(=O)O)NC1=O` [cyclo(-OctG-Glu-Thr-Ala-Ser-Ile-Pro-Pro-Gln-Lys-Tyr-^DPro-Pro-)] (cyclo([Gly(octyl)]ETASIPPQKY[dP]P)), in the data set on neutrophil elastase (0.3 mg/kg inhalation), the “NE activity in BAL fluid” value worked out at 0.10 ± 0.01 mU/mL eq. Also, the “NE activity in BAL fluid” value in the data set on neutrophil elastase (3 mg/kg inhalation) was 0.11 ± 0.01 mU/mL eq. The “NE activity in BAL fluid” value in the data set with neutrophil elastase (30 mg/kg inhalation) came out at 0.07 ± 0.01 mU/mL eq. In addition, the “effect on neutrophil elastase activity in BAL fluid” value in the data set with neutrophil elastase (0.3, 3 and 30 mg/kg by inhalation 3 h post LPS, 1 h prior to fMLP, BAL 6 h post LPS) is on record as “significantly inhibited”. Moreover, in the data set with neutrophil elastase (rat, inhalation 0.3-30 mg/kg), the “clinical signs between dosing and study termination” value was “No test item related clinical signs”. Also, in the data set on healthy subjects (healthy subjects, single inhaled doses 20-960 mg), the “death, serious and other significant adverse events” value is “No death, no serious adverse events (AE) and no other significant AE”. For the same compound, in the data set on healthy subjects (human, in vivo), the “subjects judging overall tolerability 'very good' or 'good'” value amounted to 97.9%, the “total number of AEs” value is reported as 27 and the “treatment-emergent adverse events (TEAEs)” value is on record as 24. Further, the “death, serious and other significant adverse events” value in data set [1] (CF patients, single inhaled doses 80, 160, 320 mg) was “No death, no serious adverse events (AE) and no other significant AE”. In data set [1] (human, in vivo), the “TEAEs rated as severe” value is listed as “None”, the “causal relationship of TEAEs to active compound” value is reported as “not related” and the “total number of AEs (all TEAEs)” value is 6.
